Measured values taken from patent US6737383B1, “Herbicidal oxadiazolidines” (priority 1999, dated 2004).

Experiments:
velvetleaf = test: Test B pre/postemergence velvetleaf; type: in vivo, Abutilon theophrasti
How it was run: (§1)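 Response is a visual 0-to-10 score relative to untreated plants, where 0 means no effect and 10 means complete control, taken twelve to sixteen days after application. Treatments went onto soil at planting and onto foliage of 1- to 4-leaf plants, using a surfactant-containing non-phytotoxic solvent.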

smallflower flatsedge = test: Test B flood test smallflower flatsedge; type: in vivo, Cyperus difformis
How it was run: (§2)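 Each value is a visual injury score relative to controls, with 10 meaning complete control and 0 no effect. Evaluation took place twelve to sixteen days after the 2-leaf-stage plants were treated and kept in the greenhouse.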

blackgrass = test: Test B pre/postemergence blackgrass; type: in vivo, Alopecurus myosuroides
How it was run: as §1

corn = test: Test B pre/postemergence corn; type: in vivo, Zea mays
How it was run: as §1

bedstraw = test: Test B pre/postemergence bedstraw; type: in vivo, Galium aparine; conditions: for Bedstraw plant response rating: Rate 62 g/ha
How it was run: as §1

duck salad = test: Test B flood test duck salad; type: in vivo, Heteranthera limosa
How it was run: as §2

bamyardgrass = test: Test B flood test barnyardgrass; type: in vivo, Echinochloa crus-galli
How it was run: as §2

rape = test: Test B pre/postemergence rape; type: in vivo, Brassica napus
How it was run: as §1

wild oat = test: Test B pre/postemergence wild oat; type: in vivo, Avena fatua
How it was run: as §1

wheat = test: Test B pre/postemergence wheat; type: in vivo, Triticum aestivum
How it was run: as §1

purple nutsedge = test: Test B pre/postemergence purple nutsedge; type: in vivo, Cyperus rotundus
How it was run: as §1

morningglory = test: Test B pre/postemergence morningglory; type: in vivo, Ipomoea hederacea
How it was run: as §1

rice = test: Test B flood test rice; type: in vivo, Oryza sativa
How it was run: as §2

pigweed = test: Test B pre/postemergence pigweed; type: in vivo, Amaranthus retroflexus
How it was run: as §1

cocklebur = test: Test B pre/postemergence cocklebur; type: in vivo, Xanthium strumarium
How it was run: as §1

surinam grass = test: Test B pre/postemergence surinam grass; type: in vivo, Brachiaria decumbens
How it was run: as §1

[1] = Postemergence, Rate 125 g/ha, scale 0 to 10, 0 is no effect, 10 is complete control
[2] = Preemergence, Rate 62 g/ha, scale of 0 to 10 where 0 is no effect and 10 is complete control
[3] = Preemergence, Rate 250 g/ha, scale of 0 to 10 where 0 is no effect and 10 is complete control
[4] = Preemergence, Rate 500 g/ha, scale of 0 to 10 where 0 is no effect and 10 is complete control
[5] = Rate 62 g/ha, Postemergence, scale 0 to 10 (0 no effect, 10 complete control)
[6] = Rate 250 g/ha, Postemergence, scale of 0 to 10 where 0 is no effect and 10 is complete control
[7] = Rate 500 g/ha, Postemergence, scale 0 to 10, 0 no effect, 10 complete control
[8] = Rate 62 g/ha, headed Pre-emergence (flood test species), scale 0 to 10 (0 no effect, 10 complete control)
[9] = Rate 125 g/ha, Pre-emergence, flood test species, scale 0 to 10 where 0 is no effect and 10 is complete control
[10] = Rate 250 g/ha, Pre-emergence, flood-test species, scale 0 to 10, 0 is no effect, 10 is complete control
[11] = Rate 500 g/ha, Pre-emergence, flood test species, scale 0 to 10 (0 no effect, 10 complete control)

With `CC(C)N(C(=O)n1oc(=O)n(C2CC3CCC2C3)c1=O)c1ccccc1` (stereo not drawn) [Compound 328] the “Plant response rating, Velvetleaf” value (velvetleaf; [1]) was 0, the “Velvetleaf plant response rating” value (velvetleaf; [2]) was 0 and the “Velvetleaf plant response rating (0 to 10 scale)” value (velvetleaf; Preemergence, Rate 125 g/ha) was 0. For the same compound, the “Velvetleaf plant response rating” value (velvetleaf; [3]) was 0, the “Velvetleaf plant response rating” value (velvetleaf; [4]) was 0 and the “Velvetleaf plant response rating” value (velvetleaf; [5]) was 0. For the same compound, the “Plant response rating, Velvetleaf” value (velvetleaf; [6]) was 0, the “Plant response rating, Velvetleaf” value (velvetleaf; [7]) was 0 and the “S. Flatsedge plant response rating” value (smallflower flatsedge; [8]) was 0. The “S. Flatsedge plant response rating” value (smallflower flatsedge; [9]) was 0, the “S. Flatsedge plant response rating” value (smallflower flatsedge; [10]) was 0 and the “S. Flatsedge plant response rating” value (smallflower flatsedge; [11]) was 0. For the same compound, the “Plant response rating, Blackgrass” value (blackgrass; [1]) was 1, the “Blackgrass plant response rating” value (blackgrass; [2]) was 0 and the “Blackgrass plant response rating (0 to 10 scale)” value (blackgrass; Preemergence, Rate 125 g/ha) was 0. For the same compound, the “Blackgrass plant response rating” value (blackgrass; [3]) was 4, the “Blackgrass plant response rating” value (blackgrass; [4]) was 7 and the “Blackgrass plant response rating” value (blackgrass; [5]) was 0. The “Plant response rating, Blackgrass” value (blackgrass; [6]) was 5, the “Plant response rating, Blackgrass” value (blackgrass; [7]) was 5 and the “Plant response rating, Corn” value (corn; [1]) was 0. The “Corn plant response rating” value (corn; [2]) was 0, the “Corn plant response rating (0 to 10 scale)” value (corn; Preemergence, Rate 125 g/ha) was 0 and the “Corn plant response rating” value (corn; [3]) was 0. The “Corn plant response rating” value (corn; [4]) was 0, the “Corn plant response rating” value (corn; [5]) was 0 and the “Plant response rating, Corn” value (corn; [6]) was 0. The “Plant response rating, Corn” value (corn; [7]) was 0, the “Plant response rating, Bedstraw” value (bedstraw; [1]) was 1 and the “Bedstraw plant response rating” value (bedstraw; Preemergence, scale of 0 to 10 where 0 is no effect and 10 is complete control) was 0. The “Bedstraw plant response rating (0 to 10 scale)” value (bedstraw; Preemergence, Rate 125 g/ha) was 0, the “Bedstraw plant response rating” value (bedstraw; Postemergence, scale 0 to 10 (0 no effect, 10 complete control)) was 0 and the “Plant response rating, Bedstraw” value (bedstraw; [6]) was 4. The “Ducksalad plant response rating” value (duck salad; [8]) was 0, the “Ducksalad plant response rating” value (duck salad; [9]) was 0 and the “Ducksalad plant response rating” value (duck salad; [10]) was 0. For the same compound, the “Ducksalad plant response rating” value (duck salad; [11]) was 0, the “Barnyardgrass plant response rating” value (bamyardgrass; [8]) was 0 and the “Barnyardgrass plant response rating” value (bamyardgrass; [9]) was 0. For the same compound, the “Barnyardgrass plant response rating” value (bamyardgrass; [10]) was 0, the “Barnyardgrass plant response rating” value (bamyardgrass; [11]) was 0 and the “Plant response rating, Rape” value (rape; [1]) was 0. For the same compound, the “Rape plant response rating” value (rape; [2]) was 0, the “Rape plant response rating (0 to 10 scale)” value (rape; Preemergence, Rate 125 g/ha) was 0 and the “Rape plant response rating” value (rape; [3]) was 0. For the same compound, the “Rape plant response rating” value (rape; [4]) was 0, the “Rape plant response rating” value (rape; [5]) was 0 and the “Plant response rating, Rape” value (rape; [6]) was 0. The “Plant response rating, Rape” value (rape; [7]) was 0, the “Plant response rating, Wild oats” value (wild oat; [1]) was 0 and the “Wild oats plant response rating” value (wild oat; [2]) was 0. For the same compound, the “Wild oats plant response rating (0 to 10 scale)” value (wild oat; Preemergence, Rate 125 g/ha) was 0, the “Wild oats plant response rating” value (wild oat; [3]) was 0 and the “Wild oats plant response rating” value (wild oat; [4]) was 1. For the same compound, the “Wild oats plant response rating” value (wild oat; [5]) was 0, the “Plant response rating, Wild oats” value (wild oat; [6]) was 0 and the “Plant response rating, Wild oats” value (wild oat; [7]) was 0. For the same compound, the “Plant response rating, Wheat” value (wheat; [1]) was 0, the “Wheat plant response rating” value (wheat; [2]) was 0 and the “Wheat plant response rating (0 to 10 scale)” value (wheat; Preemergence, Rate 125 g/ha) was 0. For the same compound, the “Wheat plant response rating” value (wheat; [3]) was 0, the “Wheat plant response rating” value (wheat; [4]) was 0 and the “Wheat plant response rating” value (wheat; [5]) was 0. The “Plant response rating, Wheat” value (wheat; [6]) was 0, the “Plant response rating, Wheat” value (wheat; [7]) was 0 and the “Plant response rating, Nutsedge” value (purple nutsedge; [1]) was 0. For the same compound, the “Nutsedge plant response rating” value (purple nutsedge; [2]) was 0, the “Nutsedge plant response rating (0 to 10 scale)” value (purple nutsedge; Preemergence, Rate 125 g/ha) was 0 and the “Nutsedge plant response rating” value (purple nutsedge; [3]) was 0. The “Nutsedge plant response rating” value (purple nutsedge; [4]) was 0, the “Nutsedge plant response rating” value (purple nutsedge; [5]) was 0 and the “Plant response rating, Nutsedge” value (purple nutsedge; [6]) was 0. The “Plant response rating, Nutsedge” value (purple nutsedge; [7]) was 0, the “Plant response rating, Morningglory” value (morningglory; [1]) was 8 and the “Morningglory plant response rating” value (morningglory; [2]) was 0. For the same compound, the “Morningglory plant response rating (0 to 10 scale)” value (morningglory; Preemergence, Rate 125 g/ha) was 0, the “Morningglory plant response rating” value (morningglory; [3]) was 0 and the “Morningglory plant response rating” value (morningglory; [4]) was 4. The “Morningglory plant response rating” value (morningglory; [5]) was 7, the “Plant response rating, Morningglory” value (morningglory; [6]) was 10 and the “Plant response rating, Morningglory” value (morningglory; [7]) was 10. For the same compound, the “Rice plant response rating” value (rice; [8]) was 0, the “Rice plant response rating” value (rice; [9]) was 0 and the “Rice plant response rating” value (rice; [10]) was 0. For the same compound, the “Rice plant response rating” value (rice; [11]) was 7, the “Plant response rating, Redroot pigweed” value (pigweed; [1]) was 3 and the “Redroot pigweed plant response rating” value (pigweed; [2]) was 0. The “Redroot pigweed plant response rating (0 to 10 scale)” value (pigweed; Preemergence, Rate 125 g/ha) was 0, the “Redroot pigweed plant response rating” value (pigweed; [3]) was 0 and the “Redroot pigweed plant response rating” value (pigweed; [4]) was 4. For the same compound, the “Redroot pigweed plant response rating” value (pigweed; [5]) was 2, the “Plant response rating, Redroot pigweed” value (pigweed; [6]) was 3 and the “Plant response rating, Redroot pigweed” value (pigweed; [7]) was 5. For the same compound, the “Plant response rating, Cocklebur” value (cocklebur; [1]) was 0, the “Cocklebur plant response rating (0 to 10 scale)” value (cocklebur; Preemergence, Rate 125 g/ha) was 0 and the “Cocklebur plant response rating” value (cocklebur; [3]) was 0. The “Cocklebur plant response rating” value (cocklebur; [4]) was 0, the “Cocklebur plant response rating” value (cocklebur; [5]) was 0 and the “Plant response rating, Cocklebur” value (cocklebur; [6]) was 0. For the same compound, the “Plant response rating, Cocklebur” value (cocklebur; [7]) was 0, the “Plant response rating, B. signalgrass” value (surinam grass; [1]) was 0 and the “B. signalgrass plant response rating” value (surinam grass; [2]) was 0. For the same compound, the “B. signalgrass plant response rating (0 to 10 scale, 0 is no effect, 10 is complete control)” value (surinam grass; Preemergence, Rate 125 g/ha) was 0, the “B. signalgrass plant response rating” value (surinam grass; [3]) was 0 and the “B. signalgrass plant response rating” value (surinam grass; [4]) was 5. For the same compound, the “B. signalgrass plant response rating” value (surinam grass; [5]) was 0, the “Plant response rating, B. signalgrass” value (surinam grass; [6]) was 0 and the “Plant response rating, B. signalgrass” value (surinam grass; [7]) was 0.
